From patent publication US20200368235A1, “IBRUTINIB COMBINATION THERAPY” (Pharmacyclics LLC, priority 2013, published 2020)

Tests used:
Assay type in all cases: cell-based
[1] = system: 17 Diffuse Large B Cell Lymphoma (DLBCL) cell lines; test: High throughput screen of ibrutinib combinations, growth inhibition by ATP-lite at 72h; conditions: for synergy in combination with JNJ-02 (ibrutinib): synergy score heat map across DLBCL cell lines
Procedure: (§1) A high throughput screen of 17 Diffuse Large B Cell Lymphoma (DLBCL) cell lines was conducted for their response to Ibrutinib in combination with 99 anti-cancer agents selected from among standard-of-care and emerging therapeutics and targeted agents. The goal of the project was to identify and quantify specific synergies with Ibrutinib to identify pathways that contribute to clinical response. Examples of therapeutics tested included first-line DLBCL therapeutics: RCHOP (Rituximab, Cyclophosphamide, Doxorubicin, Vincristine, Prednisone) or EPOCH (+Etoposide) and Second-line therapeutics: Dexamethasone, Prednisone, Etoposide, Vincristine, Gemcitabine, Carboplatin, Ifosfamide, Bendamustine, Cyclophosphamide, Rituximab, Lenalidomide, and Anthracycline.
(§2) The 17 DLBCL cell lines tested were DB, DOHH-2, HBL-1, HT, NU-DHL-1, OCI-Lyl, OCI-Ly10, OCI-Ly18, OCI-Ly19, OCI-Ly3, OCI-Ly7, Pfeiffer, SU-DHL-5, SU-DHL-6, SU-DHL-8, TMD8 and Toledo. Eight of the cell lines were screened in human MSC-conditioned medium (hMSC-CM) and nine of the cell lines were screened with hMSC-CM+1 ug/ml each of anti-IgM and anti-IgG. The assay was performed in a 384-well format (6×6 HFDR format) with intra-plate replicates (Ibrutinib n=4; enhancers n=2; combination n=1), inter-plate replicates (n=3) and 20 self-crosses. The dose-response matrix screening was designed to detect both types of multi-target interaction, potency shifts or efficacy boosts.
(§3) The cells were seeded 24h before dosing. Cells were dosed with ibrutinib (JNJ-02) and the test compounds at varying concentrations as depicted in FIGS. 18-39G. At T0 (0h after dosing) and T72 (72h after dosing) ATP-lite raw values were obtained. Growth inhibition of the cell culture was measured as follows:
(§4) Measure untreated at time 0 (V0) (the time at which drugs are added), treated (T) and untreated (V) (at assay end point (72h).
(§5) 100% (Total growth inhibition)—treatment viability signal and 0h vehicle viability signal are matched. (T=V0)
(§6) 200% (complete kill)—treatment viability signal is 0. (T=0)
(§7) The growth inhibition measure is sensitive to the cell doubling time (e.g., it measures the fraction of (net) growth inhibition during the assay period). Growth inhibition gives additional valuable information. For example, 0%-100% (growth inhibition) represents % reduction in net increase in the cells with vehicle during drug incubation period, 100% represents no net increase in viability signal at T72 and T0) (i.e., cytostatic) and 100%-200% (killing zone) represents cytotoxic effects.

[2] = system: OCI-Ly18 cell line; test: High throughput combination screen, growth inhibition (ATP-lite)
Procedure: as §1, §2, §3, §4, §5, §6, §7

[3] = system: DOHH-2 cell line; test: as above
Procedure: as §1, §2, §3, §4, §5, §6, §7

[4] = system: TMD8 cell line; test: as above
Procedure: as §1, §2, §3, §4, §5, §6, §7

| Molecule | synergy in combination with JNJ-02 (ibrutinib) [1] | other results |
| --- | --- | --- |
| CN(C)CC[C@H](CSc1ccccc1)Nc1ccc(S(=O)(=O)NC(=O)c2ccc(N3CCN(Cc4ccccc4-c4ccc(Cl)cc4)CC3)cc2)cc1[N+](=O)[O-] [ABT-737] | strong synergy and good breadth of activity |  |
| CC(C)c1c(C(=O)Nc2ccccc2)c(-c2ccccc2)c(-c2ccc(F)cc2)n1CC[C@@H](O)C[C@@H](O)CC(=O)O [Atrovastatin] | synergizes |  |
| CCOC(=O)C1=C(N)Oc2ccc(Br)cc2C1C(C#N)C(=O)OCC (stereo not drawn) [HA14-1] | modest synergy in selected cell lines |  |
| O=C(c1ccc(Nc2nccc(-c3cc4ccccc4s3)n2)cc1)N1CCC(N2CCCC2)CC1 [IKK inhibitor VII] | strong synergy and good breadth of activity |  |
| Nc1cccc2c1CN(C1CCC(=O)NC1=O)C2=O (stereo not drawn) [Lenalidomide] | synergized | synergy with JNJ-02 (ibrutinib) ([2]; combination with ibrutinib): does not show synergy; activity as a single agent ([2]; single agent): active as a single agent; synergy with JNJ-02 (ibrutinib) ([3]; combination with ibrutinib): does not show synergy; activity as a single agent ([3]; single agent): active as a single agent; synergy with JNJ-02 (ibrutinib) ([4]; combination with ibrutinib): synergizes; activity as a single agent ([4]; single agent): not active as a single agent; activity as a single agent ([1]; single agent, cell line not given): not active as a single agent |
| C[C@]12C=CC(=O)C=C1CC[C@@H]1[C@@H]2[C@@H](O)C[C@@]2(C)[C@H]1CC[C@]2(O)C(=O)CO [prednisolone] | strong synergy and good breadth of activity |  |
| rituximab | Synergy is observed |  |
| siltuximab (antibody, chains of the INN, looked up, V domains shown) VH: EVQLVESGGKLLKPGGSLKLSCAASGFTFSSFAMSWFRQSPEKRLEWVAEISSGGSYTYYPDTVTGRFTISRDNAKNTLYLEMSSLRSEDTAMYYCARGLWGYYALDYWGQGTSVTVSS VL: QIVLIQSPAIMSASPGEKVTMTCSASSSVSYMYWYQQKPGSSPRLLIYDTSNLASGVPVRFSGSGSGTSYSLTISRMEAEDAATYYCQQWSGYPYTFGGGTKLEIK | not |  |
